According to paper PMC12494553, “A unique gating mechanism revealed by the cryo-EM structure of monomeric ATP9A flippase” (The Journal of Biological Chemistry, 2025):

Biological target: T1, ATP9A (Homo sapiens, UniProt O75110)
T1 construct: N-terminal region before Pro38 deleted; N-terminal His6-EGFP tag cut off with HRV-3C; HEK293S GnT1- (BacMam); LMNG/GDN micelles; monomer, about 90 kDa
T1 sequence (O75110 38-1047): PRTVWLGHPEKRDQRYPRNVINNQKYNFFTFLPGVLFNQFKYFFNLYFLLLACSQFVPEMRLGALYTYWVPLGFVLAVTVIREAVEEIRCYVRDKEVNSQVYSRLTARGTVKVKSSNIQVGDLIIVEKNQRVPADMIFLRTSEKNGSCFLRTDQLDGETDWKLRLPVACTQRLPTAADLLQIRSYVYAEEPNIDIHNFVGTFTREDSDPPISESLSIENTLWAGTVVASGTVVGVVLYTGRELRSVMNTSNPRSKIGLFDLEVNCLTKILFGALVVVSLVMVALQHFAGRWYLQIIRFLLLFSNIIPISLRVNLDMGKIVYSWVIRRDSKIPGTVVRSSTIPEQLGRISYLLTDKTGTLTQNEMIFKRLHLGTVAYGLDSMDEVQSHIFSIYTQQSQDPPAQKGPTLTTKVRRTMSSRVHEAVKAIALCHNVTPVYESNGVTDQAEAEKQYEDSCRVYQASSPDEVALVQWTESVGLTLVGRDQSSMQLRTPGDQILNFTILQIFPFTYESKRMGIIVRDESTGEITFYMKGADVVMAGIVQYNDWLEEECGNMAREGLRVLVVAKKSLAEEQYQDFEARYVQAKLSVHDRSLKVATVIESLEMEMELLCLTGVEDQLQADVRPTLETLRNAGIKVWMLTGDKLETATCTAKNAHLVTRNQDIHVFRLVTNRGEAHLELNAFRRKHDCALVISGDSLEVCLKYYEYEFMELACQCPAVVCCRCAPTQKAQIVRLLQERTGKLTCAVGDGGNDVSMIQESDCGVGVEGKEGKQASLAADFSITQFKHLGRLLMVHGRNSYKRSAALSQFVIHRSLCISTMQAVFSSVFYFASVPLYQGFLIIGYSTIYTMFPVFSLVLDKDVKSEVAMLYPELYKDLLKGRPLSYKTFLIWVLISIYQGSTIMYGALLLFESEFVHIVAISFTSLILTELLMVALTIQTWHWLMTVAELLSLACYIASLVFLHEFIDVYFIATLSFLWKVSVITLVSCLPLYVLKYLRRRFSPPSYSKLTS
Assay: cryo-EM structure
Type: binding

[F][Be-]([F])[F] [BeF]
cryo-EM structure (phosphate analog bound at catalytic Asp391, E2P state, open (9VDK, 2.18 Å) and closed (9VDL, 2.31 Å) forms, made from 1 mM BeSO4 and 3 mM NaF, also used as ATPase blank): The phosphate analog BeF is bound to the catalytic Asp391

CC(C)CCC[C@@H](C)[C@H]1CC[C@H]2[C@@H]3CC=C4C[C@@H](O)CC[C@]4(C)[C@H]3CC[C@]12C [CLR, cholesterol]
cryo-EM structure (open form, E2P BeF state, lipid modelled from density, not added, outside canonical phospholipid site): Bound phospholipids (PLs) and cholesterol (CLR) in the open form are indicated
